Active and inactive are the calls of the source. No rule for the calls is given here.
System: CCRIS mutagenicity, Ames/micronucleus/aberration tests
Assay: CCRIS mutagenicity studies
Conditions: Test System: AMES SALMONELLA TYPHIMURIUM
[1] = Strain/Indicator: TA98, Metabolic Activation: NONE, Method: STANDARD PLATE
[2] = Strain/Indicator: TA100, Metabolic Activation: NONE, Method: STANDARD PLATE
[3] = Strain/Indicator: TA1535, Metabolic Activation: NONE, Method: STANDARD PLATE
[4] = Strain/Indicator: TA1537, Metabolic Activation: NONE, Method: STANDARD PLATE

O=C1c2c(O)ccc([N+](=O)[O-])c2C(=O)c2c([N+](=O)[O-])ccc(O)c21
mutagenic call (Strain/Indicator: TA98, Metabolic Activation: HAMSTER, LIVER, S-9, AROCLOR 1254 (10%), Method: PREINCUBATION): active; positive
mutagenic call (Strain/Indicator: TA98, Metabolic Activation: NONE, Method: PREINCUBATION): active; positive
mutagenic call [1]: active; positive
mutagenic call (Strain/Indicator: TA98, Metabolic Activation: RAT, LIVER, S-9, AROCLOR 1254 (10%), Method: PREINCUBATION): active; positive
mutagenic call (Strain/Indicator: TA98, Metabolic Activation: RAT, LIVER, S-9, AROCLOR 1254, Method: STANDARD PLATE): active; positive
mutagenic call (Strain/Indicator: TA100, Metabolic Activation: HAMSTER, LIVER, S-9, AROCLOR 1254 (10%), Method: PREINCUBATION): active; positive
mutagenic call (Strain/Indicator: TA100, Metabolic Activation: NONE, Method: PREINCUBATION): active; positive
mutagenic call [2]: active; positive
mutagenic call (Strain/Indicator: TA100, Metabolic Activation: RAT, LIVER, S-9, AROCLOR 1254 (10%), Method: PREINCUBATION): active; positive
mutagenic call (Strain/Indicator: TA100, Metabolic Activation: RAT, LIVER, S-9, AROCLOR 1254, Method: STANDARD PLATE): active; positive
mutagenic call (Strain/Indicator: TA1535, Metabolic Activation: HAMSTER, LIVER, S-9, AROCLOR 1254 (10%), Method: PREINCUBATION): active; positive
mutagenic call (Strain/Indicator: TA1535, Metabolic Activation: NONE, Method: PREINCUBATION): active; positive
mutagenic call [3]: inactive; negative
mutagenic call (Strain/Indicator: TA1535, Metabolic Activation: RAT, LIVER, S-9, AROCLOR 1254 (10%), Method: PREINCUBATION): active; positive
mutagenic call (Strain/Indicator: TA1537, Metabolic Activation: HAMSTER, LIVER, S-9, AROCLOR 1254 (10%), Method: PREINCUBATION): active; positive
mutagenic call (Strain/Indicator: TA1537, Metabolic Activation: NONE, Method: PREINCUBATION): active; positive
mutagenic call [4]: active; positive
mutagenic call (Strain/Indicator: TA1537, Metabolic Activation: RAT, LIVER, S-9, AROCLOR 1254 (10%), Method: PREINCUBATION): active; positive
mutagenic call (Strain/Indicator: TA1537, Metabolic Activation: RAT, LIVER, S-9, AROCLOR 1254, Method: STANDARD PLATE): active; positive
mutagenic call (Strain/Indicator: TA1538, Metabolic Activation: NONE, Method: STANDARD PLATE): active; positive
mutagenic call (Strain/Indicator: TA1538, Metabolic Activation: RAT, LIVER, S-9, AROCLOR 1254, Method: STANDARD PLATE): active; positive
mutagenic call (Strain/Indicator: TA1978, Metabolic Activation: NONE, Method: STANDARD PLATE): active; positive
mutagenic call (Strain/Indicator: TA1978, Metabolic Activation: RAT, LIVER, S-9, AROCLOR 1254, Method: STANDARD PLATE): active; positive

CCCCNc1snc2ccccc12
mutagenic call [1]: inactive; negative
mutagenic call (Strain/Indicator: TA98, Metabolic Activation: S-9, Method: STANDARD PLATE): inactive; negative
mutagenic call [2]: inactive; negative
mutagenic call (Strain/Indicator: TA100, Metabolic Activation: S-9, Method: STANDARD PLATE): inactive; negative
mutagenic call [3]: inactive; negative
mutagenic call (Strain/Indicator: TA1535, Metabolic Activation: S-9, Method: STANDARD PLATE): inactive; negative
mutagenic call [4]: inactive; negative
mutagenic call (Strain/Indicator: TA1537, Metabolic Activation: S-9, Method: STANDARD PLATE): inactive; negative
